Data: patent US20090069343A1, “Combination Histamine H1R and H4R Antagonist Therapy for Treating Pruritus” (priority 2006, published 2009)

Assays:
Assay type in all cases: in vivo, mouse
[1] = test system: CD-1 mice, histamine-induced itch; assay: Histamine-induced itch, Example 1a; settings: oral dose 20 min before i.d. histamine, FIG. 8
Protocol: Methods. Experiments and procedures were performed under on-site IACUC standards and regulations. Female CD-1 mice (Charles River Hollister, Calif.) of approximately 10-12 weeks of age were used. Mice were housed under controlled light (6:00-18:00 h) and temperature (22° C.) with food and water available ad libitum. Histamine diphosphate (Sigma, St. Louis, Mo.) was dissolved in Dulbecco's phosphate buffered saline (PBS, pH=7.4) at various concentrations. H4R Inhibitor 1 was synthesized as described by Jablonowski et al. (J. Med. Chem. (2003), 46, 3957-3960), dissolved in a vehicle of 20% HPBCD/water at various concentrations, and administered per os (p.o.; by mouth) at a volume of 10 ml/kg. Antagonists of other histamine receptors, H1R (diphenhydramine and desloratadine), H2R (ranitidine) and H3R (1-[3-(4-piperidin-1-ylmethyl-phenoxy)-propyl]-piperidine, (“H3R Antagonist 1”; synthesized as described by Barbier et al., British J. Pharmacology (2004), 143: 649-661) were formulated similarly for use in experiments. In all experiments the hair was clipped over the rostral part of the back 24 hours prior to i.d. injection of pruritogen. Where noted, animals received an oral dose of histamine receptor antagonist 20 minutes prior to injection of pruritogen. Animals were injected i.d. with 20 μl of histamine. PBS was given as the vehicle control (“V). Immediately after intradermal injection, the animals were returned to an acrylic cage (approx. 15 cm dia×30 cm) to which they had been acclimated for at least 1 hour prior to the experiment, for observation of itch responses.

[2] = test system: mice, histamine-induced scratching; assay: Histamine-induced scratching, background example; settings: FIG. 4
Protocol: To evaluate the direct role of histamine in the pruritic response, histamine was injected in to the skin of mice and the amount of scratching measured.

[3] = test system: CD-1 mice, Compound 48/80-induced itch; assay: Compound 48/80-induced itch, Example 1b; settings: oral dose 20 min before i.d. Compound 48/80, FIG. 9
Protocol: Methods. Experiments and procedures were performed under on-site IACUC standards and regulations. Female CD-1 mice (Charles River Hollister, Calif.) of approximately 10-12 weeks of age were used. Mice were housed under controlled light (6:00-18:00 h) and temperature (22° C.) with food and water available ad libitum. Compound 48/80 (Sigma, St. Louis, Mo.) was dissolved in Dulbecco's phosphate buffered saline (PBS, pH=7.4) at 5 mg/ml. H4R Inhibitor 1 (synthesized as previously described) was dissolved in a vehicle of 20% HPBCD/water at various concentrations and administered p.o. at a volume of 10 ml/kg. […] In all experiments the mouse hair was clipped over the rostral part of the back 24 hours prior to i.d. injection of pruritogen. Where noted, animals received an oral dose of histamine receptor antagonist 20 min prior to injection of pruritogen. Animals were injected i.d. with 20 μl of Compound 48/80 or were given PBS as a vehicle control. Immediately after intradermal injection, the animals were returned to an acrylic cage (approx. 15 cm diameter×30 cm height) to which they had been acclimated for at least 1 h prior to the experiment, for observation of itch responses.

[4] = test system: mice, H4R agonist-induced scratching; assay: Selective H4R agonist-induced scratching, background example; settings: oral administration; FIG. 6
[5] = test system: Balb/c mice, Compound 48/80-induced itch response; assay: Compound 48/80-induced itch response (scratches in 20 min), background example; settings: for inhibition of itch response: Compound 48/80, FIG. 2
Protocol: The role of histamine H4 receptor in itch responses was evaluated in mice.

c1cc(OCCCN2CCCCC2)ccc1CN1CCCCC1 [H3R Antagonist 1, 1-[3-(4-piperidin-1-ylmethyl-phenoxy)-propyl]-piperidine]
effect on histamine-induced itch [1]: neither the H2R antagonist ranitidine nor the H3R antagonist demonstrated significant inhibition

CN1CCN(C(=O)c2cc3cc(Cl)ccc3[nH]2)CC1 [H4R Inhibitor 1]
inhibition of histamine-induced scratching ([2]; 3 mg/kg oral pre-treatment): 17%
inhibition of histamine-induced scratching ([2]; 30 mg/kg oral pre-treatment (maximal)): 75%
effect on histamine-induced scratching ([2]; oral pre-treatment): dose-dependently inhibited
effect on Compound 48/80-induced itch [3]: significantly reduced the itch
effect on H4R agonist-induced scratching [4]: inhibitable
inhibition of itch response ([5]; 3 mg/kg): 12%
reduction of itch response ([5]; 30 mg/kg orally prior to Compound 48/80 injection, Balb/c mice): 62.5%
inhibition of itch response ([5]; 100 mg/kg (maximally active)): 68%
effect on histamine-induced itch [1]: significant reduction of histamine-induced itch

CN(C)CCOC(c1ccccc1)c1ccccc1 [diphenhydramine, reference compound]
effect on Compound 48/80-induced itch [3]: Small but significant inhibition
effect on histamine-induced itch [1]: Small but significant inhibition

Clc1ccc2c(c1)CCc1cccnc1C2=C1CCNCC1 [desloratadine]
effect on histamine-induced itch [1]: no effect
